Measured values reported in PMC4363471, “Crystal Structure of Helicobacter pylori Pseudaminic Acid Biosynthesis N-Acetyltransferase PseH: Implications for Substrate Specificity and Catalysis” (PLoS ONE, 2015).

Target: T1, PseH (Helicobacter pylori, UniProt O25094)
T1 construct: recombinant; 21 kDa; homodimer
Experiment: X-ray crystal structure ([…] Å, co-crystallization)
Format: binding
Conditions: co-crystallized with 5 mM AcCoA; cofactor site between strands β4 and β5

T1 sequence (O25094 whole entry): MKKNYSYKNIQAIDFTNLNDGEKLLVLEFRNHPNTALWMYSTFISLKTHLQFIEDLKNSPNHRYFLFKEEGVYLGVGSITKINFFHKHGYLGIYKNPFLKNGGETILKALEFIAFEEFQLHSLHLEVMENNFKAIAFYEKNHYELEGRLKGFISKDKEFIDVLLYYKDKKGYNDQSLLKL

CC(=O)SCCNC(=O)CCNC(=O)[C@H](O)C(C)(C)COP(=O)(O)OP(=O)(O)OC[C@H]1O[C@@H](n2cnc3c(N)ncnc32)[C@H](O)[C@@H]1OP(=O)(O)O [AcCoA]
X-ray crystal structure (2.3 Å, co-crystallization): Analysis of the difference Fourier map revealed an AcCoA binding site between the splayed strands
